Where two headings read alike, the source gives them in different places.

One data set has as its target PSMA (LNCaP, PC-3 PIP). Particulars: read-out: Ki, LNCaP (literature), LNCaP cells, literature data, ref 2 (SI); cited from earlier work.
For data set [1], the target named is T1, PSMA receptor in LNCaP cells (PSMA+, GRPR-) (Homo sapiens, UniProt Q04609).
T1 construct: Briefly, LNCaP 10 5 cells per well; host or cells: LNCaP cells
In words: Cell-based competitive binding assay in LNCaP cells against [68Ga]Ga-PSMA-10. The note with it: 10^5 cells/well, against [68Ga]Ga-PSMA-10 0.75 nM, analyte 0–5000 nM, 45 min, gamma counter, quadruplicate.
Procedure: Each value was measured in quadruplicate.
Cell Culture & cell assays
In vitro and in vivo experiments were performed with the following cell lines: the GRPR positive PC -3 cells
supplemented with 10% fetal calf serum and 2 mM L -glutamine (Invitrogen, Carlsbad, CA, USA). Cells
were grown at 37 °C in humidified air with 5% CO 2. Trypsin-ethylenediaminetetraacetic acid (trypsin -
EDTA; 0.25% tryps in, 0.02% EDTA, Invitrogen) was used for cell harvesting.
Determination of Binding Affinity in LNCaP and PC -3 cells
3-5 Briefly, LNCaP 10 5 cells per well
PSMA-10, precursor purchased from ABX, Radeberg , Germany) and an ascending series of 12 different
45 min). This mixture was removed after incubation and the wells were washed on a multiscreen vacuum
manifold (Millipore, Billerica, MA) three times with PBS. The following detection of cell-bound
radioactivity was measured using a gamma counter (Packard Cobra II, GMI, Minnesota, USA).
fitted with a nonlinear regression algorithm (GraphPad Software) to determine the 50% inhibitory
concentration (IC50) values.
min. After incubation the mixture was removed, the wells were washed with PBS and the cell -bound
radioactivity was measured using a gamma counter (Hidex AMG - Automated Gamma Counter).

Data set [2] in a line: Radio RP-HPLC analysis (elution order). The note with it: radiolabeled ligands; Chromolith RP-18e, 0−100% AcCN (0.1% TFA) in 6 min, 4 mL/min; said to agree with logD.
The next data set deals with PC-3 tumors. The note with it: in vivo; cited from earlier work.
The target of data set [3] is T1, PSMA receptor in LNCaP cells (PSMA+, GRPR-). The note with it: standard used at C = 0.75 nM; no reference given; read-out: IC50 of standard radioligand (PSMA); cited from earlier work.

T1 sequence (Q04609 whole entry): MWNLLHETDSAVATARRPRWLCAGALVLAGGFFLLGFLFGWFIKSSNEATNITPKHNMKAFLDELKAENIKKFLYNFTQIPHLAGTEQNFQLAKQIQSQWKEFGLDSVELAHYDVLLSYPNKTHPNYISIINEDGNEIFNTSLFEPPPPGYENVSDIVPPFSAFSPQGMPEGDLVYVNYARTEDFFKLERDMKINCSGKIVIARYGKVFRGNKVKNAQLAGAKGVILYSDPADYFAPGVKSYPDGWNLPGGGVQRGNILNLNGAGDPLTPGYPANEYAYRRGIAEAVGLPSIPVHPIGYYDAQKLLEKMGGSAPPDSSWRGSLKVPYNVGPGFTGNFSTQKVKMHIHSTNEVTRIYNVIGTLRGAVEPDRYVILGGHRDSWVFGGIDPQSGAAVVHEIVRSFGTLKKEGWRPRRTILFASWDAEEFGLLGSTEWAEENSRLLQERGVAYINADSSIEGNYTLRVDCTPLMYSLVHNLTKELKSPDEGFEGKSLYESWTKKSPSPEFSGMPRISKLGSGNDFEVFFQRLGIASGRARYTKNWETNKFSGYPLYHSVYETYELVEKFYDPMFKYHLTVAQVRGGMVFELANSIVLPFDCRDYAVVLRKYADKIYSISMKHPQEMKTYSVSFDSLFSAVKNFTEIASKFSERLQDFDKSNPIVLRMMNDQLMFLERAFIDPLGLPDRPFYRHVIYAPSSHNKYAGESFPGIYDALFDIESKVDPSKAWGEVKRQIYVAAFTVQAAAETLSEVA
Procedure for PSMA (LNCaP, PC-3 PIP): This mixture was removed after incubation and the wells were washed on a multiscreen vacuum manifold (Millipore, Billerica, MA) three times with PBS. The following detection of cell-bound radioactivity was measured using a gamma counter (Packard Cobra II, GMI, Minnesota, USA).

As for `O=C(O)CC[C@H](NC(=O)N[C@@H](CCCCNC(=O)[C@H](Cc1ccc2ccccc2c1)NC(=O)[C@H]1CC[C@H](CNC(=O)CN2CCN(CC(=O)O)CCN(CC(=O)O)CCN(CC(=O)O)CC2)CC1)C(=O)O)C(=O)O` [PSMA-617 (1), vipivotide tetraxetan], the Ki on PSMA (LNCaP, PC-3 PIP) was 2.34 nM. The molecule also gave an IC50 in data set [1] of 6.41 nM. Besides, the “Elution order in radio RP-HPLC” value in data set [2] was “eluted first”.
In the case of `CC(C)C[C@H](NC(=O)C[C@H](O)[C@H](CC(C)C)NC(=O)[C@H](Cc1c[nH]cn1)NC(=O)CNC(=O)[C@@H](NC(=O)[C@H](C)NC(=O)[C@H](Cc1c[nH]c2ccccc12)NC(=O)[C@H](CCC(N)=O)NC(=O)[C@@H](Cc1ccccc1)NC(=O)CN1CCC(NC(=O)CN2CCN(CC(=O)O)CCN(CC(=O)O)CCN(CC(=O)O)CC2)CC1)C(C)C)C(N)=O` [[68Ga]Ga-RM2] [metal not drawn], in the data set with PC-3 tumors, the Kidneys uptake was 3.34 ± 0.54 % ID/g.
“[Glu-urea-Lys(Ahx)]2-HBED-CC [[^68Ga]Ga-PSMA-10]”: the IC50 in data set [3] is 3.8 ± 1.8 nM.

As a reminder, the Ki is the equilibrium dissociation constant of an inhibitor or competing ligand from its target. A word on the IC50: it is the concentration that inhibits the measured activity by half.

These data come from article PMC11571012, “Synthesis and Preclinical Evaluation of a Bispecific PSMA-617/RM2 Heterodimer Targeting Prostate Cancer” (ACS Medicinal Chemistry Letters, 2024).
